Measurements published in patent US9957257B2, “Amide compounds as 5-HT4 receptor agonists” (SUVEN LIFE SCIENCES LIMITED, priority 2015, dated 2018).
Counter-ions that a name gives are not always drawn.

Each compound was assayed against T1, recombinant human 5-HT4 receptor (Homo sapiens, UniProt Q13639) (assay: Determination of EC50 values for 5-HT4 receptor (CHO cells, pCRE-Luc reporter)). Conditions: luciferase reporter, 4 hours incubation, read-out: 5-HT4 receptor agonistic binding in-vitro EC50.
T1 construct: expressed in transfected cells
T1 sequence (Q13639 whole entry): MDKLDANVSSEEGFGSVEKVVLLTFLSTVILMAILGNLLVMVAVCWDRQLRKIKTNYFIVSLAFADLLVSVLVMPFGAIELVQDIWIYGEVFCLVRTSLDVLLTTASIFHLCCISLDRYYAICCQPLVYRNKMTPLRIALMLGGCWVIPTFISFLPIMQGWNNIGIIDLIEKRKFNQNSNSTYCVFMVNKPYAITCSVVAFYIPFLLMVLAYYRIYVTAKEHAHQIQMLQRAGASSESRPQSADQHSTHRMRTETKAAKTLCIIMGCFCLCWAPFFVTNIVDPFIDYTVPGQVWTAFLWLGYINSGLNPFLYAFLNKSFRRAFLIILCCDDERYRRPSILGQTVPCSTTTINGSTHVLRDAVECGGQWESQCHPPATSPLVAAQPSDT
Assay type: cell-based
Procedure: A stable CHO cell line expressing recombinant human 5-HT4 receptor and pCRE-Luc reporter system was used for cell-based assay. The assay offers a non-radioactive based approach to determine binding of a compound to GPCRs. In this specific assay, the level of intracellular cyclic AMP, which is modulated by activation, or inhibition of the receptor is measured. The recombinant cells harbor luciferase reporter gene under the control of cAMP response element.
The above cells were grown in 96 well clear bottom white plates in Hams F12 medium containing 10% fetal bovine serum (FBS). Prior to the addition of compounds or standard agonist, cells were serum starved overnight. Increasing concentrations of test compounds were added in OptiMEM medium to the cells. The incubation was continued at 37° C. in CO2 incubator for 4 hours. Medium was removed and cells were washed with phosphate buffered saline. The cells were lysed and luciferase activity was measured in a Luminometer. Luminescence units were plotted against the compound concentrations using Graphpad software. EC50 values of the compounds were defined as the concentration required in stimulating the luciferase activity by 50%.
Work on Nc1c(Cl)cc(C(=O)NCC2C3CN(CC4CCOCC4)CC23)c2c1CCCO2 (stereo not shown) [Example 1, 5-Amino-6-chloro-N-{[3-(tetrahydro-2H-pyran-4-ylmethyl)-3-azabicyclo[3.1.0]hex-6-yl]methyl}chroman-8-carboxamide hydrochloride] yielded an EC50 of at most 1 nM. Nc1c(Cl)cc(C(=O)NCC2C3CN(C4CCOCC4)CC23)c2c1CCCO2 (stereo not drawn) [Example 6, 5-Amino-6-chloro-N-{[3-(tetrahydro-2H-pyran-4-yl)-3-azabicyclo[3.1.0]hex-6-yl]methyl}chroman-8-carboxamide L(+)-tartarate] gave an EC50 of 1.1 to 5 nM. For Nc1ccc(C(=O)NCC2C3CN(CC4CCOCC4)CC23)c2c1CCCO2 (stereo not drawn) [Example 7, 5-Amino-N-{[3-(tetrahydro-2H-pyran-4-ylmethyl)-3-azabicyclo[3.1.0]hex-6-yl]methyl}chroman-8-carboxamide L(+)-tartarate], the EC50 was 10.1 to 20 nM. Work on Nc1c(Cl)cc(C(=O)NCC2[C@H]3CN(CC4CCOC4)C[C@@H]23)c2c1CCCO2 (stereo partly drawn) [Example 8, (R,S) 5-Amino-6-chloro-N-{[3-(tetrahydro-3-furanylmethyl)-3-azabicyclo[3.1.0]hex-6-yl]methyl}chroman-8-carboxamide] yielded an EC50 of at most 1 nM. Nc1c(Cl)cc(C(=O)NCC2(F)CCN(CC3CCOC3)CC2)c2c1CCCO2 (stereo not shown) [Example 10, 5-Amino-6-chloro-N-{[4-fluoro-1-(tetrahydro-3-furanylmethyl)-4-piperidinyl]methyl}chroman-8-carboxamide] gave an EC50 of 1.1 to 5 nM. Nc1c(Br)cc(C(=O)NCC2C3CN(CC4CCOCC4)CC23)c2c1CCCO2 (stereo not drawn) [Example 12, 5-Amino-6-bromo-N-{[3-(tetrahydro-2H-pyran-4-ylmethyl)-3-azabicyclo[3.1.0]hex-6-yl]methyl}chroman-8-carboxamide L(+)-tartarate] showed an EC50 of 1.1 to 5 nM. With Nc1c(Cl)cc(C(=O)NCC2C3CN(CC4CCOCC4)CC23)c2occc12 (stereo not shown) [Example 13, 4-Amino-5-chloro-N-{[3-(tetrahydro-2H-pyran-4-ylmethyl)-3-azabicyclo[3.1.0]hex-6-yl]methyl}benzofuran-7-carboxamide hydrochloride] the EC50 was 5.1 to 10 nM. Work on Nc1c(Cl)cc(C(=O)NCC2C3CN(C4CCOCC4)CC23)c2occc12 (stereo not shown) [Example 15, 4-Amino-5-chloro-N-{[3-(tetrahydro-2H-pyran-4-yl)-3-azabicyclo[3.1.0]hex-6-yl]methyl}benzofuran-7-carboxamide oxalate] yielded an EC50 of 10.1 to 20 nM. In the case of COC(=O)N1CCC(N2CC3C(CNC(=O)c4cc(Cl)c(N)c5ccoc45)C3C2)CC1 (stereo not shown) [Example 17, 4-Amino-5-chloro-N-{[3-(1-methoxycarbonylpiperidine-4-yl)-3-azabicyclo[3.1.0]hex-6-yl]methyl}benzofuran-7-carboxamide oxalate], the EC50 is reported as 5.1 to 10 nM. Compound Cc1cc2c(N)c(Cl)cc(C(=O)NCC3C4CN(CC5CCOCC5)CC34)c2o1 (stereo not shown) [Example 18, 4-Amino-5-chloro-2-methyl-N-{[3-(tetrahydro-2H-pyran-4-ylmethyl)-3-azabicyclo[3.1.0]hex-6-yl]methyl}benzofuran-7-carboxamide hydrochloride] has an EC50 of 1.1 to 5 nM. CC(C)N1CC2C(CNC(=O)c3cc(Cl)c(N)c4c3OCC4)C2C1 (stereo not shown) [Example 20, 4-Amino-5-chloro-N-[(3-isopropyl-3-azabicyclo[3.1.0]hex-6-yl)methyl]-2,3-dihydrobenzofuran-7-carboxamide oxalate] was tested, and the EC50 was 5.1 to 10 nM. Work on Nc1c(Cl)cc(C(=O)NCC2C3CN(CC4CCC4)CC23)c2c1CCO2 (stereo not shown) [Example 22, 4-Amino-5-chloro-N-{[3-(cyclobutylmethyl)-3-azabicyclo[3.1.0]hex-6-yl]methyl}-2,3-dihydrobenzofuran-7-carboxamide oxalate] yielded an EC50 of 1.1 to 5 nM. Compound COC(=O)N1CCC(N2CC3C(CNC(=O)c4cc(Cl)c(N)c5c4OCC5)C3C2)CC1 (stereo not drawn) [Example 24, 4-Amino-5-chloro-N-{[3-(1-methoxycarbonylpiperidine-4-yl)-3-azabicyclo[3.1.0]hex-6-yl]methyl}-2,3-dihydrobenzofuran-7-carboxamide L(+)-tartarate] has an EC50 of 5.1 to 10 nM. With Nc1c(Cl)cc(C(=O)NCC2C3CN(CC4CCOCC4)CC23)c2c1CCO2 (stereo not drawn) [Example 26, 4-Amino-5-chloro-N-{[3-(tetrahydropyran-4-ylmethyl)-3-azabicyclo[3.1.0]hex-6-yl]methyl}-2,3-dihydrobenzofuran-7-carboxamide L(+)-tartarate] the EC50 was 1.1 to 5 nM. In the case of Nc1c(Cl)cc(C(=O)NCC2C3CN(C4CCOCC4)CC23)c2c1CCO2 (stereo not shown) [Example 28, 4-Amino-5-chloro-N-{[3-(tetrahydropyran-4-yl)-3-azabicyclo[3.1.0]hex-6-yl]methyl}-2,3-dihydrobenzofuran-7-carboxamide oxalate], the EC50 is reported as 5.1 to 10 nM. In the case of Nc1c(Br)cc(C(=O)NCC2C3CN(C4CCOCC4)CC23)c2c1CCO2 (stereo not shown) [Example 29, 4-Amino-5-bromo-N-{[3-(tetrahydropyran-4-yl)-3-azabicyclo[3.1.0]hex-6-yl]methyl}-2,3-dihydrobenzofuran-7-carboxamide oxalate], the EC50 is reported as 10.1 to 20 nM. In the case of Nc1c(Cl)cc(C(=O)NCC2C3CN(CC4(O)CCOCC4)CC23)c2c1CCCO2 (stereo not drawn) [Example 30, 5-Amino-6-chloro-N-{[3-(4-hydroxytetrahydro-2H-pyran-4-ylmethyl)-3-azabicyclo[3.1.0]hex-6-yl]methyl}chroman-8-carboxamide L(+)-tartarate], the EC50 is reported as 1.1 to 5 nM. Nc1c(Cl)cc(C(=O)NCC2C3CN(CC4(O)CCOCC4)CC23)c2occc12 (stereo not shown) [Example 32, 4-Amino-5-chloro-N-{[3-(4-hydroxytetrahydro-2H-pyran-4-ylmethyl)-3-azabicyclo[3.1.0]hex-6-yl]methyl}benzofuran-7-carboxamide oxalate] was tested, and the EC50 was 5.1 to 10 nM. Nc1c(Cl)cc(C(=O)NCC2C3CN(CC4(O)CCOCC4)CC23)c2c1CCO2 (stereo not shown) [Example 35, 4-Amino-5-chloro-N-{[3-(4-hydroxytetrahydropyran-4-ylmethyl)-3-azabicyclo[3.1.0]hex-6-yl]methyl}-2,3-dihydrobenzofuran-7-carboxamide oxalate] showed an EC50 of 1.1 to 5 nM. Nc1c(Cl)cc(C(=O)NCC2C3CN(CC4(F)CCOCC4)CC23)c2c1CCCO2 (stereo not drawn) [Example 36, 5-Amino-6-chloro-N-{[3-(4-fluorotetrahydro-2H-pyran-4-ylmethyl)-3-azabicyclo[3.1.0]hex-6-yl]methyl}chroman-8-carboxamide L(+)-tartarate] showed an EC50 of at most 1 nM. In the case of CC(C)(O)CN1CCC(F)(CNC(=O)c2cc(Cl)c(N)c3ccoc23)CC1 [Example 38, 4-Amino-5-chloro-N-{[4-fluoro-1-(2-hydroxy-2-methylpropyl)-4-piperidinyl]methyl}benzofuran-7-carboxamide], the EC50 is reported as 5.1 to 10 nM. Work on CC(C)(O)CN1CCC(CNC(=O)c2cc(Cl)c(N)c3c2OCCC3)CC1 [Example 40, 5-Amino-6-chloro-N-{[1-(2-hydroxy-2-methylpropyl)-4-piperidinyl]methyl}chroman-8-carboxamide] yielded an EC50 of at most 1 nM. Work on CC(C)(O)CN1CCC(CNC(=O)c2cc(Cl)c(N)c3c2OCCC3)CC1 [Example 41, 5-Amino-6-chloro-N-{[1-(2-hydroxy-2-methylpropyl)-4-piperidinyl]methyl}chroman-8-carboxamide L(+)-tartarate] yielded an EC50 of 10.1 to 20 nM. CC(C)(O)CN1CC2C(CNC(=O)c3cc(Cl)c(N)c4c3OCC4)C2C1 (stereo not shown) [Example 42, 4-Amino-5-chloro-N-{[3-(2-hydroxy-2-methylpropyl)-3-azabicyclo[3.1.0]hex-6-yl]methyl}-2,3-dihydrobenzofuran-7-carboxamide oxalate] gave an EC50 of 5.1 to 10 nM. With CC(C)(O)CN1CCC(F)(CNC(=O)c2cc(Cl)c(N)c3c2OCCC3)CC1 [Example 43, 5-Amino-6-chloro-N-{[4-fluoro-1-(2-hydroxy-2-methylpropyl)-4-piperidinyl]methyl}chroman-8-carboxamide] the EC50 was 1.1 to 5 nM. In the case of CC(C)(O)CN1CCC(CNC(=O)c2cc(Br)c(N)c3c2OCCC3)CC1 [Example 46, 5-Amino-6-bromo-N-{[1-(2-hydroxy-2-methylpropyl)-4-piperidinyl]methyl}chroman-8-carboxamide L(+)-tartarate], the EC50 is reported as at most 1 nM. CC(C)(O)CN1CCC(CNC(=O)c2cc(Cl)c(N)c3ccoc23)CC1 [Example 49, 4-Amino-5-chloro-N-{[1-(2-hydroxy-2-methylpropyl)-4-piperidinyl]methyl}benzofuran-7-carboxamide L(+)-tartarate] was tested, and the EC50 was 1.1 to 5 nM. For CC(C)(O)CN1CC2C(CNC(=O)c3cc(Cl)c(N)c4ccoc34)C2C1 (stereo not drawn) [Example 51, 4-Amino-5-chloro-N-{[3-(2-hydroxy-2-methylpropyl)-3-azabicyclo[3.1.0]hex-6-yl]methyl}benzofuran-7-carboxamide L(+)-tartarate], the EC50 was 10.1 to 20 nM. With Cc1cc2c(N)c(Cl)cc(C(=O)NCC3CCN(CC(C)(C)O)CC3)c2o1 [Example 52, 4-Amino-5-chloro-2-methyl-N-{[1-(2-hydroxy-2-methylpropyl)-4-piperidinyl]methyl}benzofuran-7-carboxamide L(+)-tartarate] the EC50 was at most 1 nM. Cc1cc2c(N)c(Cl)cc(C(=O)NCC3C4CN(CC(C)(C)O)CC34)c2o1 (stereo not shown) [Example 54, 4-Amino-5-chloro-2-methyl-N-{[3-(2-hydroxy-2-methylpropyl)-3-azabicyclo[3.1.0]hex-6-yl]methyl}benzofuran-7-carboxamide] showed an EC50 of 5.1 to 10 nM. With CC(C)(F)CN1CCC(CNC(=O)c2cc(Cl)c(N)c3c2OCCC3)CC1 [Example 55, 5-Amino-6-chloro-N-{[1-(2-fluoro-2-methylpropyl)-4-piperidinyl]methyl}chroman-8-carboxamide] the EC50 was at most 1 nM.
